According to US20240368078A1, “ARYL HETEROCYCLIC COMPOUNDS AS Kv1.3 POTASSIUM SHAKER CHANNEL BLOCKERS” (D.E. SHAW RESEARCH, LLC, priority 2021, published 2024):

Tests used:
[1] = target: Kv1.3 potassium channel (Homo sapiens (Human), UniProt P22001); assay: Kv1.3 potassium channel blocker activity, automated whole-cell patch clamp in CHO-K1 cells stably expressing Kv1.3; type: cell-based; conditions: Patchliner patch clamp
Method: Example 21. Evaluation of Kv1.3 Potassium Channel Blocker Activities
This assay is used to evaluate the disclosed compounds' activities as Kv1.3 potassium channel blockers.
CHO-K1 cells stably expressing Kv1.3 were grown in DMEM containing 10% heat-inactivated FBS, 1 mM sodium pyruvate, 2 mM L-glutamine, and G418 (500 μg/ml). Cells were grown in culture flasks at 37° C. in a 5% C02-humidified incubator.
(§1) The cells were bathed in an extracellular solution containing 140 mM NaCl, 4 mM KCl, 2 mM CaCl2), 1 mM MgCl2, 5 mM glucose, 10 mM HEPES; pH adjusted to 7.4 with NaOH; 295-305 mOsm. The internal solution contained 50 mM KCl, 10 mM NaCl, 60 mM KF, 20 mM EGTA, 10 mM HEPES; pH adjusted to 7.2 with KOH; 285 mOsm. All compounds were dissolved in DMSO at 30 mM. Compound stock solutions were freshly diluted with external solution to concentrations of 30 nM, 100 nM, 300 nM, 1 μM, 3 μM, 10 μM, 30 μM and 100 μM. The highest content of DMSO (0.3%) was present in 100 μM.
The currents were evoked by applying 100 ms depolarizing pulses from −90 mV (holding potential) to +40 mV were applied with 0.1 Hz frequency. Control (compound-free) and compound pulse trains for each compound concentration applied contained 20 pulses. 10-second breaks were used between pulse trains (see Table A below).
Whole-cell current recordings and compound application were enabled by means of an automated patch clamp platform Patchliner (Nanion Technologies GmbH). EPC 10 patch clamp amplifier (HEKA Elektronik Dr. Schulze GmbH) along with Patchmaster software (HEKA Elektronik Dr. Schulze GmbH) was used for data acquisition. Data were sampled at 10 kHz without filtering. Passive leak currents were subtracted online using a P/4 procedure (HEKA Elektronik Dr. Schulze GmbH). Increasing compound concentrations were applied consecutively to the same cell without washouts in between. Total compound incubation time before the next pulse train was not longer than 10 seconds. Peak current inhibition was observed during compound equilibration.
(§2) AUC and peak values were obtained with Patchmaster (HEKA Elektronik Dr. Schulze GmbH). To determine IC50, the last single pulse in the pulse train corresponding to a given compound concentration was used. Obtained AUC and peak values in the presence of compound were normalized to control values in the absence of compound. Using Origin (OridinLab), IC50 was derived from data fit to Hill equation: Icompound/Icontrol=(100-A)/(1+([compound]/IC50)nH)+A, where IC50 value is the concentration at which current inhibition is half-maximal, [compound] is the applied compound concentration, A is the fraction of current that is not blocked and nH is the Hill coefficient.

[2] = target: hERG channel (Homo sapiens (Human), UniProt Q12809); assay: hERG electrophysiology, automated whole-cell patch clamp in CHO-K1 cells stably expressing hERG; type: cell-based; conditions: Patchliner patch clamp
Method: Example 22. Evaluation of hERG Activities
This assay is used to evaluate the disclosed compounds's inhibition activities against the hERG channel.
This assay is used to evaluate the disclosed compounds' inhibition activities against the hERG channel.
CHO-K1 cells stably expressing hERG were grown in Ham's F-12 Medium with glutamine containing 10% heat-inactivated FBS, 1% penicillin/streptomycin, hygromycin (100 μg/ml) and G418 (100 μg/ml). Cells were grown in culture flasks at 37° C. in a 5% CO2— humidified incubator.
as §1, with “Glucose,” for “glucose,”
The voltage protocol (see Table B) was designed to simulate voltage changes during a cardiac action potential with a 300 ms depolarization to +20 mV (analogous to the plateau phase of the cardiac action potential), a repolarization for 300 ms to −50 mV (inducing a tail current) and a final step to the holding potential of −80 mV. The pulse frequency was 0.3 Hz. Control (compound-free) and compound pulse trains for each compound concentration applied contained 70 pulses.
Whole-cell current recordings and compound application were enabled by means of an automated patch clamp platform Patchliner (Nanion). EPC 10 patch clamp amplifier (HEKA) along with Patchmaster software (HEKA Elektronik Dr. Schulze GmbH) was used for data acquisition. Data were sampled at 10 kHz without filtering. Increasing compound concentrations were applied consecutively to the same cell without washouts in between.
as §2, with “PEAK” for “peak”, “IC50” for “IC50,”, “Icompound/Icontrol=(100−A)/(1+([compound]/IC50)nH)+A,” for “Icompound/Icontrol=(100-A)/(1+([compound]/IC50)nH)+A,”, “IC50” for “IC50 value”

Sequence of Kv1.3 potassium channel (P22001 whole entry): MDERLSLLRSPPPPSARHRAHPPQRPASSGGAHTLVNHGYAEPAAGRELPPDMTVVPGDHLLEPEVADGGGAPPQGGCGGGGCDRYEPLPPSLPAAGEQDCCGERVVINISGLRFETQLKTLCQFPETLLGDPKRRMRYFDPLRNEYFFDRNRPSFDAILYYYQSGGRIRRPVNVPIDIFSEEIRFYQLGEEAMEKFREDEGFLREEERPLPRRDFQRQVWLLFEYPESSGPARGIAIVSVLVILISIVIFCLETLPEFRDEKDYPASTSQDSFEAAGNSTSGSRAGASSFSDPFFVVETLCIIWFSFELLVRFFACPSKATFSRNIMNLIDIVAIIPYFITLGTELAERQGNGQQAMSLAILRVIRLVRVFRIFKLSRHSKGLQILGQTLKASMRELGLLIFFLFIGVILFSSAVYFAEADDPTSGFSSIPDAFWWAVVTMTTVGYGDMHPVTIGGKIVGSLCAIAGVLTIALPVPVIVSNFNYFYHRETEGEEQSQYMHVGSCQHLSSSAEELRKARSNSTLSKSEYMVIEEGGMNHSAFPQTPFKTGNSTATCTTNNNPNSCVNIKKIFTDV
Sequence of hERG channel (Q12809 whole entry): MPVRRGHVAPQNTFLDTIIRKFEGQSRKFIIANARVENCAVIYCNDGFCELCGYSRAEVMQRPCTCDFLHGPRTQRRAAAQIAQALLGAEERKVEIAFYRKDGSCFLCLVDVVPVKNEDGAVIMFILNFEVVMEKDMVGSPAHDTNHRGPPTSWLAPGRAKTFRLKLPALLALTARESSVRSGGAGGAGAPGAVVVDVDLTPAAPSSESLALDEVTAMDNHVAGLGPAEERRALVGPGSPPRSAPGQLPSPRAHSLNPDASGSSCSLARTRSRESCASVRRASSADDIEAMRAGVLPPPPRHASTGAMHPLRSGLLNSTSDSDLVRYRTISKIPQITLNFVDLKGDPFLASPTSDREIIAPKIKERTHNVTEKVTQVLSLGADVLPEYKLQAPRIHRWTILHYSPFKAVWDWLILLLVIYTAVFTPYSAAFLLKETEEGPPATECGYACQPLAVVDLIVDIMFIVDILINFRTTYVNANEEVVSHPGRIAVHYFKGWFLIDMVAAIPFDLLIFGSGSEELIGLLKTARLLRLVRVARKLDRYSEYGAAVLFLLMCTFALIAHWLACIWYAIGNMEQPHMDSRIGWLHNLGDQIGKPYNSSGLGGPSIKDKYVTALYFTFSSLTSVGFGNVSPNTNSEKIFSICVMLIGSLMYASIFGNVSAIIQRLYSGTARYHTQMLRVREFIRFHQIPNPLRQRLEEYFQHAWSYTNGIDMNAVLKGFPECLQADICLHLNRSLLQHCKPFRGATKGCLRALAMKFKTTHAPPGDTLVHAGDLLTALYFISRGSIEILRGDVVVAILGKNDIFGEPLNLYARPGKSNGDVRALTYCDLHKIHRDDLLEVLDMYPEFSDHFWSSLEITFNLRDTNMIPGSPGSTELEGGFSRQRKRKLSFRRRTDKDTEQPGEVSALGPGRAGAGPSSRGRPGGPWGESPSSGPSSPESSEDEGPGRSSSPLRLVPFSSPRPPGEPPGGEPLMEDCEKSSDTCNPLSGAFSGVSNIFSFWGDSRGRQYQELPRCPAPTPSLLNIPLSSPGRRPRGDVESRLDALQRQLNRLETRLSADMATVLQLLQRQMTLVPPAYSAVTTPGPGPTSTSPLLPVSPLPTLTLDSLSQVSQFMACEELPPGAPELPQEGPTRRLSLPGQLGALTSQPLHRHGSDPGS

Row | IC50 [1] [µM] | SMILES | IC50 [2] [µM]
1 | < 1 | CN(C)C(=O)C[C@H]1CN[C@@H](c2c(O)ccc(Cl)c2Cl)C1 [Compound 41, 2-((3S,5R)-5-(2,3-dichloro-6-hydroxyphenyl)pyrrolidin-3-yl)-N,N-dimethyalcetamide] | > 30
2 | < 1 | COC[C@H](C(N)=O)[C@H]1CN[C@@H](c2c(O)ccc(Cl)c2Cl)C1 (single isomer, unassigned) [Compound 74] | > 100
3 | < 0.1 | O=C(C[C@H]1CN[C@@H](c2c(O)ccc(Cl)c2Cl)C1)N1CC(O)C1 [Compound 56, 2-((3S,5R)-5-(2,3-dichloro-6-hydroxyphenyl)pyrrolidin-3-yl)-1-(3-hydroxyazetidin-1-yl)ethan-1-one] | > 100
4 | < 1 | O=C(C[C@H]1CN[C@@H](c2c(O)ccc(Cl)c2Cl)C1)N1CCC[C@@H](O)C1 [Compound 58, 2-((3S,5R)-5-(2,3-dichloro-6-hydroxyphenyl)pyrrolidin-3-yl)-1-((R)-3-hydroxypipeiridn-1-yl)ethan-1-one] | > 30
5 | < 1 | O=C(CC1CN[C@@H](c2c(O)ccc(Cl)c2Cl)C1)N1CC[C@H](O)C1 (stereo partly drawn) [Compound 40, 2-((5R)-5-(2,3-dichloro-6-hydroxyphenyl)pyrrolidin-3-yl)-1-((S)-3-hydroxypyrrolidin-1-yl)ethan-1-one] | > 100
6 | < 0.1 | Oc1ccc(Cl)c(Cl)c1[C@H]1C[C@@H](Cc2cn[nH]c2)CN1 [Compound 54, 3,4-dichloro-2-[(2R,4R)-4-(1H-pyrazol-4-ylmethyl)pyrrolidin-2-yl] phenol] | > 10
7 | < 1 | CC(C)(CO)NC(=O)C[C@H]1CN[C@@H](c2c(O)ccc(Cl)c2Cl)C1 [Compound 71, 2-((3S,5R)-5-(2,3-dichloro-6-hydroxyphenyl)pyrrolidin-3-yl)-N-(1-hydroxy-2-methylpropan-2-yl)acetamide] | > 100
8 | < 0.1 | CC[C@H](C(N)=O)[C@H]1CN[C@@H](c2c(O)ccc(Cl)c2Cl)C1 (single isomer, unassigned) [Compound 47] | 100
9 | < 1 | NC(=O)C[C@H]1CN[C@@H](c2c(O)ccc(Cl)c2Cl)C1 [Compound 31, 2-[(3S,5R)-5-(2,3-dichloro-6-hydroxyphenyl)pyrrolidin-3-yl]acetamide] | > 100
10 | < 0.1 | O=C(CC1CN[C@@H](c2c(O)ccc(Cl)c2Cl)C1)N1CC[C@@H](O)C1 (stereo partly drawn) [Compound 39, 2-((5R)-5-(2,3-dichloro-6-hydroxyphenyl)pyrrolidin-3-yl)-1-((R)-3-hydroxypyrrolidin-1-yl)ethan-1-one] | > 100
11 | < 0.1 | CNC(=O)CC1CN[C@@H](c2c(O)ccc(Cl)c2Cl)C1 (stereo partly drawn) [Compound 36, 2-((5R)-5-(2,3-dichloro-6-hydroxyphenyl)pyrrolidin-3-yl)-N-methylacetamide] | > 30
12 | < 1 | CN(C)C(=O)CC1CN[C@@H](c2c(O)ccc(Cl)c2Cl)C1 (stereo partly drawn) [Compound 37, 2-((5R)-5-(2,3-dichloro-6-hdyroxyphenyl)pyrrolidin-3-yl)-N,N-dimethylacetamide] | > 30
13 | < 1 | CC(C)(C(N)=O)[C@H]1CN[C@@H](c2c(O)ccc(Cl)c2Cl)C1 [Compound 52, 2-[(3S,5R)-5-(2,3-dichloro-6-hydroxyphenyl)pyrrolidin-3-yl]-2-methylpropanamide] | > 30
14 | < 0.1 | CC1(O)CN(C(=O)C[C@H]2CN[C@@H](c3c(O)ccc(Cl)c3Cl)C2)C1 [Compound 61, 2-((3S,5R)-5-(2,3-dichloro-6-hydroxyphenyl)pyrrolidin-3-yl)-1-(3-hydroxy-3-methylazetidin-1-yl)ethan-1-one] | > 100
15 | < 1 | O=C(CO)NC[C@@H]1CN[C@@H](c2c(O)ccc(Cl)c2Cl)C1 [Compound 48, N-{[(3S,5R)-5-(2,3-dichloro-6-hydroxyphenyl)pyrrolidin-3-yl]methyl}-2-hydroxyacetamide] | > 30
16 | < 0.1 | CN(CCO)C(=O)CC1CN[C@@H](c2c(O)ccc(Cl)c2Cl)C1 (stereo partly drawn) [Compound 35, 2-((5R)-5-(2,3-dichloro-6-hydroxyphenyl)pyrrolidin-3-yl)-N-(2-hydroxyethyl)-N-methylacetamide] | > 30
17 | < 0.1 | O=C(CC1CN[C@@H](c2c(O)ccc(Cl)c2Cl)C1)N1CC(O)(CO)C1 (stereo partly drawn) [Compound 33, 2-((5R)-5-(2,3-dichloro-6-hydroxyphenyl)pyrrolidin-3-yl)-1-(3-hydroxy-3-(hydroxymethyl)azetidin-1-yl)ethan-1-one] | > 100
18 | < 0.1 | O=C(CC1CN[C@@H](c2c(O)ccc(Cl)c2Cl)C1)NCCO (stereo partly drawn) [Compound 34, 2-((5R)-5-(2,3-dichloro-6-hydroxyphenyl)pyrrolidin-3-yl)-N-(2-hydroxyethyl)acetamide] | > 100
19 | < 0.1 | NC(=O)C(CO)[C@H]1CN[C@@H](c2c(O)ccc(Cl)c2Cl)C1 (single isomer, unassigned) [Compound 77] | > 100
20 | < 1 | C[C@@H](C(N)=O)[C@H]1CN[C@@H](c2c(O)ccc(Cl)c2Cl)C1 (single isomer, unassigned) [Compound 44] | > 100
21 | < 1 | O=C(C[C@H]1CN[C@@H](c2c(O)ccc(Cl)c2Cl)C1)N1CC[C@@H]1CO [Compound 67, 2-((3S,5R)-5-(2,3-dichloro-6-hydroxyphenyl)pyrrolidin-3-yl)-1-((R)-2-(hydroxymethyl)azetidin-1-yl)ethan-1-one] | > 100
22 | < 1 | NC(=O)CC1CN[C@@H](c2cc(Cl)c(Cl)cc2O)C1 (stereo partly drawn) [Compound 38, 2-((5R)-5-(4,5-dichloro-2-hydroxyphenyl)pyrrolidin-3-yl)acetamide] | > 10
23 | < 1 | NC(=O)[C@@H](CO)[C@H]1CN[C@@H](c2c(O)ccc(Cl)c2Cl)C1 (single isomer, unassigned) [Compound 76] | > 100
